Legend:
U87MG cells [1] = assay: Intracellular localization by CLSM, MitoTracker Green; type: cell-based, human; settings: free Ce6 or TPP-Ce6, 2 h
Procedure: U87MG and bEnd.3 cells (2×10^3 cells/well) were prepared in glass-bottom dishes (35×10 mm^2) and incubated for 24 h. Free Ce6, free TPP-Ce6, and bEV(TPP-Ce6) in serum-free medium were added to the cells at a final TPP-Ce6 (or Ce6) concentration of 0.15 μM. After 2 h of incubation at 37° C., the cells were washed three times with PBS and stained with 1 μg/mL DAPI (Thermo Fisher Scientific) for 10 min. Then, the cells were stained with 1 μM of LysoTracker Green DND-26 (Thermo Fisher Scientific) and 500 nM of MitoTracker Green FM (Thermo Fisher Scientific) for endo/lysosome and mitochondria staining, respectively. The glass-bottom dish was placed in live-cell chamber systems (5% CO2 at 37° C.) connected to a CLSM (Al Plus, Nikon, Japan). The obtained fluorescent images were analyzed for the quantification of colocalization ratios.

[2] = ROS generation in cell-free system (DCF); settings: before and after 660-nm laser treatment
Procedure: (§1) The generation of ROS by Ce6 and TPP-Ce6 before and after 660 nm laser treatment was quantified using 2′,7′-dichlorofluorescein (DCF) in a cell-free system. After the sample solutions were treated with DCF for 1 h in the dark, ROS generation was determined by measuring the fluorescence signal from the samples. The intracellular ROS production in U87MG cells after various treatments was measured using DCF-DA. U87MG cells were inoculated into 12 well-plates at a density of 3×10^5 cells/well and cultured overnight. After the cells were incubated with 10 μM DCF-DA for 15 min, they were treated with Ce6, TPP-Ce6, and bEV(TPP-Ce6) at a TPP-Ce6 (or Ce6) concentration of 10 μM. After 4 h of incubation, the cells were trypsinized and divided into two groups. One of the groups was treated with a 660 nm laser for 1 min. The cells not subjected to laser treatment were kept as a control. After 30 min of incubation in the dark, relative ROS generation levels of each sample were quantified by flow cytometry (CytoFLEX).

U87MG cells [3] = assay: Intracellular ROS generation (DCF-DA); type: cell-based, human
Procedure: as §1
To visualize ROS generation by TPP-Ce6 and bEV(TPP-Ce6) in U87MG cells under light irradiation, the cells were inoculated into 12-well plates (3×10^5 cells/well) and stained with 10 μM of DCF-DA. […] The green fluorescence signals indicating intracellular ROS were observed using a fluorescence microscope (Nikon Eclipse Ti-S, Nikon, Tokyo, Japan).

U87MG cells [4] = assay: JC-1 staining assay (mitochondrial membrane potential); type: cell-based, human; settings: 10 μM, 4 h, 660-nm laser 1 min
Procedure: Changes in the mitochondria membrane potentials of U87MG cells after various treatments were evaluated using a conventional JC-1 staining assay. U87MG cells were cultured in 12-well plates (3×10^5 cells/well) 24 h before treatment with Ce6, TPP-Ce6, and bEV(TPP-Ce6) (10 µM of Ce6 or TPP-Ce6). After 4 h of incubation, the cells were exposed to a 660-nm laser for 1 min. The untreated cells were adopted as a control. Then, the irradiated cells were treated with JC-1 solution in PBS (2.5 μg/mL) for 20 min in the dark, then rinsed twice with PBS. Fluorescent images of the cells were obtained by fluorescence microscopy (Nikon Eclipse Ti—S). Red fluorescence signals indicate the JC-1 aggregates in polarized mitochondria of healthy cells whereas green fluorescence signals reflect the JC-1 monomers in depolarized mitochondria, which indicates the loss in mitochondrial membrane potential, an indicator of mitochondrial damage.

U87MG cells [5] = assay: In vitro phototoxicity, MTT assay; type: cell-based, human; settings: 10 μM
Procedure: To investigate the photodynamic effects of TPP-Ce6-loaded EVs, the viability of U87MG cells after various treatments in the presence or absence of laser irradiation was measured using a standard MTT assay. U87MG cells were treated with Ce6, TPP-Ce6, and bEV(TPP-Ce6) at an equivalent Ce6 (or TPP-Ce6) concentration (10 μM, 5.38×10^10 bEVs/mL). Cytotoxicity of blank bEVs against U87 cells was also assessed at various concentrations of bEVs. After 4 h of treatments, the cells were illuminated with a 660 nm laser for 1 min. The cells not subjected to light irradiation were adopted as a negative control. The cells were further incubated for 24 h, and their viabilities were measured.

[6] = test system: orthotopic GBM-xenografted mice; assay: In vivo biodistribution and brain-tumor accumulation by IVIS; settings: i.v. 0.8 μmol/kg
Procedure: (§2) All animal experiments were approved by the Institutional Animal Care and Use Committee at Gachon University (Approval number: LCDI-2017-0131). Orthotopic GBM-xenografted mice were prepared using U87MG cells stably expressing luciferase. Briefly, male athymic mice of 5 weeks of age (20-30 g) were placed on a stereotactic device (Harvard Apparatus, USA) under inhalation anesthesia using 1-1.5% isoflurane. U87MG-luc cells (1×10^5 cells) suspended in 2 μL of PBS were injected into the right striatum at a flow rate of 0.5 μL/min through a small hole in the skull at a position 2.0 mm lateral, 0.2 mm anterior, and 3.2 mm ventral to the bregma. The formation of brain tumors in the mice was identified by bioluminescence intensity (BLI).
To evaluate in vivo real-time biodistribution of Ce6, TPP-Ce6, and bEV(TPP-Ce6), orthotopic GBM-xenografted mice (n=4) were intravenously administered with 100 μL of each sample (0.8 μmol/kg for Ce6 or TPP-Ce6). Whole-body fluorescence images were acquired at the predetermined time points within 24 h after i.v. injection using an IVIS optical imaging system with a long wavelength emission filter (640-720 nm) (Ami HT imaging system, Spectral Instruments Imaging, Tucson, AZ, USA). Quantitative analysis of fluorescence intensity in the images was carried out using the region of interest (ROI) function of Aura Imaging 2.20 software (Spectral Instruments Imaging). […]

[7] = test system: luciferase-expressing U87MG brain tumors; assay: In vivo anti-brain tumor efficacy with laser irradiation; set-up: species or system mice
Procedure: as §2
The orthotopic GBM-bearing mice were randomly divided into five groups (n=4) and injected with one of the following regimens by i.v. injection dose of 0.8 μmol/kg Ce6 (or TPP-Ce6) via the tail vein: • (i) PBS, • (ii) PBS+L (L indicates light irradiation), • (iii) Ce6 (0.8 μmol/kg)+L, • (iv) TPP-Ce6 (0.8 μmol/kg)+L, and • (v) bEV(TPP-Ce6) (0.8 μmol/kg)+L.
At 4 h post-injection, the tumor sites of the mice were irradiated with a 660-nm laser (150 mW, 5 min) on the skull. […] Regions of bioluminescence signal were determined using Aura imaging software (Spectral Instruments Imaging). […]

**Q.** Which results are given for chlorin e6 [Ce6]?
**A.** Mander's overlap coefficient with MitoTracker Green (U87MG cells [1]): 0.31±0.03; Relative ROS level in cell-free system [2]: significantly increased the ROS generation; Relative intracellular ROS level, effect of light (U87MG cells [3]; after light irradiation (660 nm, 1 min) vs before): significantly increased after 1 min of light exposure; DCF-DA fluorescence signals (images) (U87MG cells [3]; without light): weak fluorescence signals; JC-1 red fluorescence / red to green fluorescence ratio (U87MG cells [4]): drastically decreased; Cell viability under light irradiation (U87MG cells [5]; 660 nm laser 1 min, 24 h): 72.5%; Viability / cytotoxicity without light (U87MG cells [5]; no light irradiation): slightly decreased; Fluorescence in the brain ([6]; 24 h post-injection): weak fluorescence signals; Whole brain-to-whole body fluorescence intensity ratio, time course ([6]; whole body at 1 min): similar; H&E staining of brain tumor tissue ([7]; day 9, upon light irradiation): low cell density and nuclear shrinkage; Tumor growth (bioluminescence intensity) ([7]; i.v. 0.8 μmol/kg, 660 nm laser 5 min at 4 h, 9 days): limited suppression of tumor growth

Source: patent US20240245802A1, “PHARMACEUTICAL COMPOSITION FOR PREVENTING OR TREATING BRAIN TUMORS COMPRISING EXTRACELLULAR VESICLES LOADED WITH MITOCHONDRIA-TARGETING PHOTOSENSITIZER AS AN ACTIVE INGREDIENT” (ExoTheranostics, Inc., priority 2023, published 2024)
